In patent US4879384A, “Preparation of thiocycloalkno [3,2-b] pyridines” (Ortho Pharmaceutical Corporation, priority 1988, dated 1989):
Where two headings read alike, the source gives them in different places.

What was measured:
[1] = target: T1, calcium channels (Oryctolagus cuniculus, UniProt P15381); test: Inhibition of nitrendipine binding to calcium channels; assay type: New Zealand white rabbit (heart membranes); conditions: for IC50: Table II
T1 construct: from tissue; host or cells: rabbit heart membranes (female New Zealand white rabbits; 42,000 xg pellet)
Experimental: (1) Inhibition of nitrendipine binding to calcium channels.
The assay for inhibition of nitrendipine binding follows the following procedure:
Female, New Zealand white rabbits (1-2 kg) are sacrificed by cervical dislocation, and the heart is immediately removed, cleaned, and chopped into small pieces. The tissue is homogenized in 5X volume of 0.05M Hepes buffer, pH 7.4. The homogenate is centrifuged at 4000 xg for 10 minutes; the supernatant is recentrifuged at 42,000 xg for 90 minutes. The resulting membrane pellet is resuspended (0.7 ml/g weight) in 0.05M Hepes, pH 7.4 and stored at -70° C. until used. Each tube of the binding assay contains ^3 H-nitrendipine (0.05-0.50nM), buffer, membranes (0.10 ml), and test compound in a total volume of 1.0 ml. After 90 minutes at 4° C., the bound nitrendipine is separated from the unbound by filtration on Whatman GF/C fibers. After rinsing, the filters are dried and counted in a liquid scintillation counter.
Non-specific binding of ^3 H-nitrendipine (that amount bound in the presence of excess unlabelled nitrendipine) is subtracted from the total bound to obtain specifically bound radiolabeled nitrendipine. The amount of specifically bound nitrendipine in the presence of a test compound is compared to that amount bound in the absence of a compound. A percent displacement (or inhibition) can then be obtained.

[2] = system: Trachea Muscle; test: Inhibition of calcium dependent smooth muscle contraction (trachea); assay type: cell-based, dog; conditions: Table II; concentration 0.3 μM
Experimental: The test for inhibition of calcium dependent smooth muscle contraction is determined according to the following procedure:
Trachea from dogs sacrificed by excess KCl injection are stored overnight at 4° C. in oxygenated Krebs-Henseleit buffer. Tracheal rings, one cartilage segment wide (5-10 mm), are cut starting from the bronchial end. After cutting the cartilage, the trachealis muscle tissue is suspended in oxygenated Krebs-Henseleit buffer at 37° C. in a 25 ml tissue bath. After a 60 minutes equilibration period, the tissues are challenged with 10 uM carbachol. After 5 minutes the tissues are rinsed and allowed to rest 50 minutes. The tissues are then challenged with 50 mM KCl and, after 30 minutes, the contractions are quantitated. The tissues are then rinsed and reequilibrated for 50 minutes. Test compounds are then added for 10 minutes, and the tissue is rechallenged with 50 mMKcl. After 30 minutes, the contraction is recorded and used to determine the % inhibition of control.
The percent inhibition of smooth muscle contracting is calculated from response data before and after drug treatment. [formula] A rating is assigned to the compound depending upon the percent inhibition obtained.

T1 sequence (P15381 whole entry, other chains not shown): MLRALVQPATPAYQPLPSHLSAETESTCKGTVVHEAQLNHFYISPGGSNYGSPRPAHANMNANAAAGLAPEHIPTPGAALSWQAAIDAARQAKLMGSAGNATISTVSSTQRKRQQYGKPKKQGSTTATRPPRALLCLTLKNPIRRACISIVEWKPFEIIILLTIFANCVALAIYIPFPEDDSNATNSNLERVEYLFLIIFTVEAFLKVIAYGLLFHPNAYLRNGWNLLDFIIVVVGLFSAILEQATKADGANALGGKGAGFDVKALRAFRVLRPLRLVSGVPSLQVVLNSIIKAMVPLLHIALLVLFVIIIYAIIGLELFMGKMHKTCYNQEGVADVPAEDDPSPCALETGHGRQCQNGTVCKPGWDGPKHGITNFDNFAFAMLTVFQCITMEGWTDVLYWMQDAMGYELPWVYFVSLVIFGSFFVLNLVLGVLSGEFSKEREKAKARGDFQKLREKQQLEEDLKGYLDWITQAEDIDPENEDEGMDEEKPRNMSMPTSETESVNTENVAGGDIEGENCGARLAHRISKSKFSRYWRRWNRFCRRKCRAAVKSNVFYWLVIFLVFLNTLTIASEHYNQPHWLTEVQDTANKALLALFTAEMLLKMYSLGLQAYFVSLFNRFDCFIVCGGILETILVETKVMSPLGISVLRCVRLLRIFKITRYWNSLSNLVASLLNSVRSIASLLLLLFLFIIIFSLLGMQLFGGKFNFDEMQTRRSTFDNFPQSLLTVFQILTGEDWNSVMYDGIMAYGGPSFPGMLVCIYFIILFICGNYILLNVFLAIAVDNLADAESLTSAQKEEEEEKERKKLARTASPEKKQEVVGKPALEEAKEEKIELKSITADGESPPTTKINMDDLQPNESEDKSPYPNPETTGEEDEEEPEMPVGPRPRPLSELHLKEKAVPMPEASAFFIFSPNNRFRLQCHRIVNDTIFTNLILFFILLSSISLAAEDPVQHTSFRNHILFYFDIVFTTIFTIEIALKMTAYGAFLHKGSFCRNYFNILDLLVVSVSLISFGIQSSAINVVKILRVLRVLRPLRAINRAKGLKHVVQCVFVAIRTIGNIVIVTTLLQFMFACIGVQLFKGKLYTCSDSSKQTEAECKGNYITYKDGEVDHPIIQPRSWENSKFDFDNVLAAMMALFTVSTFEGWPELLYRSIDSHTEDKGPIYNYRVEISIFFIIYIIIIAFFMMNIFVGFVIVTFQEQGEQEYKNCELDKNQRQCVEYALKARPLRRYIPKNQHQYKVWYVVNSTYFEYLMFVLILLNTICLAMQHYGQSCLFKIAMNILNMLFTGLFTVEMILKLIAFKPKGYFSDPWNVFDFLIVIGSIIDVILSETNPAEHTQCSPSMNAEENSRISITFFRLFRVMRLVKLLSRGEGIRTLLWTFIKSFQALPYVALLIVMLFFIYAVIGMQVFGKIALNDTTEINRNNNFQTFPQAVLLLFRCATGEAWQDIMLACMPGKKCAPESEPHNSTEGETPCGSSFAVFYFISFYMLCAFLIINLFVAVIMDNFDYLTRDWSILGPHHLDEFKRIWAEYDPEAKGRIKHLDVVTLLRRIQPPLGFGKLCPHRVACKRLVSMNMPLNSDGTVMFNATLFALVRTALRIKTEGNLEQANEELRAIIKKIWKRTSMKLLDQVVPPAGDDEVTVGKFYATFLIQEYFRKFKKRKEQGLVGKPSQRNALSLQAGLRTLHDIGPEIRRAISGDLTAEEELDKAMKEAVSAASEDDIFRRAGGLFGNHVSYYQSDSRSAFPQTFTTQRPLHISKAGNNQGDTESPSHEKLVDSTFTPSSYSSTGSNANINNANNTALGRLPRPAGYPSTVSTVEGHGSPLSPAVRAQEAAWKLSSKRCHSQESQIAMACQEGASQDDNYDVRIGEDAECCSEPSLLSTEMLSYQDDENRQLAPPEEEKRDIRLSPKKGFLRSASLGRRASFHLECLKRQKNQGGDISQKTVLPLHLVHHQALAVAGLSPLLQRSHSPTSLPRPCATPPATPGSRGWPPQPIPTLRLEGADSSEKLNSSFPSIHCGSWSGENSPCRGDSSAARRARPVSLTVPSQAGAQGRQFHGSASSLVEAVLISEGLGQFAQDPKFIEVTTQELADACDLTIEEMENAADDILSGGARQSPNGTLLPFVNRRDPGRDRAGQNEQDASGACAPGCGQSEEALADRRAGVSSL
T1 sequence (P13806 27-960 partner limits assumed, other chains not shown): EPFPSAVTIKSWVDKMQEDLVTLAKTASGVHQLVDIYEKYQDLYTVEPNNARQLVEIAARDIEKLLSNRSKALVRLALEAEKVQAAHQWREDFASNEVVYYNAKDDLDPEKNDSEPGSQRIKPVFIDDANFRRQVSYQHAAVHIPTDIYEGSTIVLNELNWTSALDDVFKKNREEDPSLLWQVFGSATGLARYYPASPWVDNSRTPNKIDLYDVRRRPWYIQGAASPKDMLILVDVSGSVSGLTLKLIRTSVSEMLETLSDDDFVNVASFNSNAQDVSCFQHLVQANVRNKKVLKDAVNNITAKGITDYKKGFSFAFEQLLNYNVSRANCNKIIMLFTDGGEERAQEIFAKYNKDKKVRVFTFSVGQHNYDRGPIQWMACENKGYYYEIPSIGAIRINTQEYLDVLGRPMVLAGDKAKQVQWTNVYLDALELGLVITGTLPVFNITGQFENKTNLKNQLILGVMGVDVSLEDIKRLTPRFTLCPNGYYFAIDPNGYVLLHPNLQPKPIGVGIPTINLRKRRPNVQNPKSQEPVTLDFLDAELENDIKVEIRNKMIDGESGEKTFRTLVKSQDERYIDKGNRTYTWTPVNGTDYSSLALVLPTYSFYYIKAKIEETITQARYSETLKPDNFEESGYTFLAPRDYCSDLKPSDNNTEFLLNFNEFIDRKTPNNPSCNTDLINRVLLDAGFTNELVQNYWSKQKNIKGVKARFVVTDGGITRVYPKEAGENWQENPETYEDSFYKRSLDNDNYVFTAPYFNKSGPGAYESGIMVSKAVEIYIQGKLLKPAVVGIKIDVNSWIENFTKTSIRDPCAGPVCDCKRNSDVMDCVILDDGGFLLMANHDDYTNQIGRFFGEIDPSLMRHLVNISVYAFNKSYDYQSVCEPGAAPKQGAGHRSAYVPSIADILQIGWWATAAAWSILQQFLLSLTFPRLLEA
T1 sequence (P13806 961-1106 partner limits assumed, other chains not shown): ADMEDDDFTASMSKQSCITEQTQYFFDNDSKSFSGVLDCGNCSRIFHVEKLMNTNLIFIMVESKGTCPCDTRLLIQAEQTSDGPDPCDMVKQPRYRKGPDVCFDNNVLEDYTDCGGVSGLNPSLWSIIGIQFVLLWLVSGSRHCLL

SMILES: CC1=C(C(=O)OCCN(C)Cc2ccccc2)C(c2ccccc2[N+](=O)[O-])C2=C(CCCCCS2(=O)=O)N1 (stereo not shown) [5 2-NO2 C6 H4 CH2 CH2 NCH3 CH2 C6 H5]
- IC50 ([1]; second part, read-out: Inhibition Nitrendipine binding IC^50): 110 nM

SMILES: COC(=O)C1=C(C)NC2(O)CCS(=O)(=O)C2C1c1ccccc1[N+](=O)[O-] (stereo not shown) [Methyl 2,3,3a,4,7,7a-hexahydro-3a-hydroxy-5-methyl-7-(2-nitrophenyl)-1,1-dioxo-thieno[3,2-b]pyridine-6-carboxylate]
- Inhibition of Nitrendipine binding (percent at stated concentration) ([1]; Table I, @ 8.0): 56%

SMILES: CCOC(=O)C1=C(C)NC2=C(C1c1cccnc1SC)S(=O)(=O)CCCCC2 (stereo not shown) [drawing 8 CH2 CH3]
- IC50 ([1]; first part, read-out: Inhibition of Nitrendipine binding IC50): 108 nM
- Inhibition of Trachea Muscle Contraction, % Inhibition [2]: 79%
